In US10046001B2, “Compositions and methods for reducing intraocular pressure” (UNIVERSITY OF MIAMI, priority 2013, dated 2018):

Columns and labels:
[1] = tested on: assembled layers of primary TM cells; assay: fluorescein transport across assembled layers of primary TM cells in Using type chamber; assay type: cell-based, human; conditions: 10 pmole lipid, transport at 15 seconds
Text: A pentalayer of cells were casted on a PVDF filter of 0.45 μm pore size with second to fourth layer topped with rat collagen. Control (without lipid treatment) or with 10 pmole of indicated lipid treated cells were used for these measurements. The transport of flourescein at 15 seconds from the opposite end after introduction of sample at one was estimated. Mean and standard deviation from three independent experiments have been presented. The relative transport has been divided into two zones (marked in yellow), that when the transport is above 0.48 but less than 0.62=1; and above 0.62=2 as indicated.
The transport of fluorescein across cell assembled layered TM cells was determined in an Using type chamber (FIG. 4). The five layers of primary TM cells with collagen matrix in between layers after the first layer were laid on a sterile PVDF membrane (0.45 μm pores). The fluorescein was introduced from one side of the port (the cellular side) and was sampled from another side (the membrane side) within 15 seconds of introduction. Differences in transport between the cell only control and cell treated with lipids for 1-3 hours prior to forming multi-layers (FIG. 4) was observed. The fluorescein transport was quantized and divided into two categories (marked with yellow zones) as 1 and 2 (FIG. 4).
Using type chamber experiments: An Using type chamber (cat #USS1L, World Precision Instrument, Inc.) was used to measure fluorescein flow (sodium fluorescein dye) across the PVDF membrane (cat #75696E Pall Life Sciences, Pensacola Fla.). Trabecular meshwork cells were cultured as described above on the PVDF membrane. Before plating the cells a layer of collagen matrix (Rat Tail Collagen, cat #BD 354249) was formed on the membrane to facilitate the adherence of TM cells to the membrane. The cells were allowed to form a confluent monolayer over a period of 16-24 hours and then another layer of cells was plated on this monolayer. This process was repeated to ultimately achieve a confluent tri-layer of cells. The cells were transfected with DNA of interest [TREK-1+cochlin, TREK-1 and RPE65, TREK-1, transfection agent (Lipofectamine 2000) (Invitrogen)] or left untransfected. 24-36 hours post transfection the membranes were placed between the hemi-chambers of the apparatus connected to a peristaltic pump creating flow across the membrane bathing in 1× DPBS. To measure the flow across the membrane, sodium flourescein dye was used (1:100 dilution of 1 mg/ml). The dye was introduced in one hemi-chamber and equal amounts (100 μl) were aspirated from the other hemi-chamber at 5 minutes post-injection. The fluorescein intensity was measured using the spectrophotometer.

[2] = tested on: trabecular meshwork (TM) primary cells; assay: mobility and cell shape changes of primary TM cells exposed to lipids (time-lapse imaging); assay type: cell-based, human; conditions: for mobility and cell shape changes for trabecular meshwork (TM) primary cells due to exposure to lipids: 10 pmoles of lipid; for dynamics of filopodia formation: exposure to lipids vs vehicle
Experimental: FIGS. 2A and 2B show representative images of the effect of lipid on trabecular meshwork primary cells. The time lapsed images of cell at indicated time interval. A. The control TM cells were subjected to vehicle (5% DMSO) in phosphate buffered saline. […] A protrusion of filopodia in a cell is indicated by thick arrow head. At 2 minutes after addition of vehicle to 16 minutes, the protrusion remains unchanged. B. TM cells treated with 10 pmoles of lipid. Most cells have protrusions with only a few cells without them. The filopodia in lipid treated cells are dynamic, they undergo dynamic retraction starting at 1 or 2 minutes after addition of lipid in the serum free media, indicated by arrows. At 16 minutes filopodia are largely retracted.
Modulation of cell motility and shape. Compared to controls (vehicle-10% DMSO only treated) shape of primary TM cells (FIG. 2A), exposure to lipids changed the shape of cells promoting filopodia and motility (FIG. 2B). All these lipids promote contraction of filopodia (FIG. 2B, arrows) and well as expansion. These images were derived from time lapsed video imaging of primary TM cells and summary data from several donor derived cells. The exposure to lipids render the cells more dynamic with respect to filopodia formation and their dynamic expansion-contraction (Summarized in Table 1 (FIG. 11)). The motility and filopodia formation is affected by a variety of intrinsic and extrinsic factors such as age of the donors from where cell have been derived, cell density, composition of the medium, environmental temperature and incubation gas composition. The age of the donor and cell density are the most prominent factors.
TM cell culture experiments: Primary human TM cells were cultured from cadaveric corneo-scleral sections. The cells were isolated through a blunt dissection of the area containing and adjacent to the canal of Schlemm, followed by a 2 hour digestion in DPBS (cat #21-030-CV, Mediatech Inc, Manassas, Va.) suspension of 20% 0.01 μg/μL collagenase-A (cat #LS004194, Worthington, Lakewood N.J.). The blunt dissection and the proteolytic treatment were performed inside a 12 well culture plate (cat #665-180 Greiner Bio-One, Neuburg, Germany). Culture media containing [DMEM 1× (cat #10-017-CM, Mediatech Inc), 10% heat inactivated FBS (cat #35-016-CV, Mediatech), 0.5% 1.7 mM L-Glutamine (cat #G6392, Sigma-Aldrich), 1% Antibiotic-Antimycotic Solution (cat #30-004-CL, Mediatech)] was added after 2 hours to terminate digestion. A sterile microscopy slide (cat #56700-194, VMR) was placed on top of the tissue fragment to ensure bottom-contact and immobility inside the media well. The sections were cultured at 37° C. in 5% CO2 inside a cell culture incubator. Culture was washed with 1× DPBS 7 days later to remove tissue debris; media change occurred every 3-4 days. Thus obtained cells were trypsin-treated (cat #25-050-C1, Mediatech) and accordingly distributed the day before the transfection complexes were created using the ratio of 0.4 μg/uL of respective vector DNA to the transfection agent (Lipofectamine 2000, cat #11668-019, Invitrogen), prepared accordingly to the manufacturer's instructions Following addition to respective wells, the transfection reactions were allowed to take place over a 2.5 hour span, after which they were terminated through the addition of cell culture media. Cell assays and immunohistochemical analysis were performed at or within a 24 hour time mark in order to observe and track the effects of vector expression on morphological changes. Time-lapse microscopy was performed using cells grown on glass bottom chamber slides (cat #154534, Lab-Tek, Thermo Fisher Scientific Inc., Rochester N.Y.) and Zeiss AxioVert 200M, for the duration of 20 hours, with a snapshot every 15 minutes, starting at 24 hours post-transfection. Immunohistochemical analysis was performed on cells fixed with 4% PFA (cat #19943, USB Corp, Cleveland, Ohio) at time intervals of 0, 24, and 29 hours post-transfection. […]

| Structure (SMILES) | transport of fluorescein in assembled layers of primary TM cells [1] | mobility and cell shape changes for trabecular meshwork (TM) primary cells due to exposure to lipids [2] | dynamics of filopodia formation [2] |
| --- | --- | --- | --- |
| CCCCC/C=C\C/C=C\C/C=C\C/C=C\CCCC(=O)O[C@H](COC(=O)CCCCCCCCCCCCCCCCC)COP(=O)(O)OC1[C@H](O)[C@H](O)C(O)[C@H](O)[C@H]1O (some centres unmarked) [PI(18:0/20:4)5Z,8Z,11Z,14Z))] | showed an effect | showed an effect |  |
| CCCCCCCCCCCCC(=O)OC[C@H](COP(=O)([O-])OCC[N+](C)(C)C)OC(=O)CCCCCCCCCCCC [PC(13:0/13:0), 1,2-ditridecanoyl-sn-glycero-3-phosphocholine, reference compound] | lack of any effect | lack of any effect | exception |
| CCCCCCCCCCCCCC[C@@H](O)[C@@H](N)COP(=O)(O)O [C17 Sphinganine-1-phosphate] | showed an effect | showed an effect |  |
| CCCC/C=C\C/C=C\CCCCCCCC(=O)O[C@H](COC(=O)CCCCCCCCCCC)COP(=O)(O)OC1C(O)C(O)C(O)[C@@H](O)C1O (some centres unmarked) [PI(12:0/17:2)9Z,12Z))] | showed an effect | showed an effect |  |
| CCCCCCCCCCCCCC(=O)OC[C@@H](O)COP(=O)(O)OC[C@H](N)C(=O)O [PS(14:0/0:0)] | showed an effect | showed an effect |  |
| CCCCCCCCCCCCCCC[C@@H](O)[C@@H](N)CO [Sphinganine] | showed an effect | showed an effect |  |
| CCCCCCCC/C=C\CCCCCCCCCCCCCCCC(=O)N[C@@H](CO)[C@H](O)/C=C/CCCCCCCCCCCCC [Cer(d18:1/26:1(17Z))] | showed an effect | showed an effect |  |
| CCCCCCCCCCCCCCCCCC(=O)OC[C@@H](O)COP(=O)(O)OC[C@H](N)C(=O)O [PS(18:0/0:0)] | showed an effect | showed an effect |  |
| CCCC/C=C\CCCCCCCC(=O)O[C@H](COC(=O)CCCCCCCCCCC)COP(=O)([O-])OCC[N+](C)(C)C [PC(12:0/14:1(9Z))] | lack of any effect | lack of any effect | exception |
| CCCCCCCCCCCCCCCCCC(=O)OC[C@H](COP(=O)(O)OCCN)OC(=O)CCCCCCCCCCCCCCCCC [PE(18:0/18:0)] | showed an effect | showed an effect |  |
| CCCCCCCCCCC/C=C/[C@@H](O)[C@H](COP(=O)([O-])OCC[N+](C)(C)C)NC(=O)CCCCCCCCCCCCCCCCCCCCCCCC [SM(d16:1/25:0)] | showed an effect | showed an effect |  |
| CCCCCCCC/C=C\CCCCCCCC(=O)N[C@@H](CO)[C@H](O)CCCCCCCCCCCCCCC [Cer(d18:0/18:1(9Z))] | showed an effect | showed an effect |  |
